Laboratory results as given in PubChem BioAssay AID2060487 (Molecular Pharmacology Branch, DTP, NCI, 2025).
pIC50: −log10 of the molar value.

System: 997537-175-T-J1-PDC complex spheroid viability
Assay: Anticancer human tumor 997537-175-T-J1-PDC patient-derived colon adenocarcinoma cell line growth inhibition [GQUAD]
Conditions: for pIC50: curve of first compound; for viability, T/C: stronger effect = lower value
Summary of the method: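 Tumor cells were grown as complex spheroids with HUVEC endothelial cells and mesenchymal stem cells as stroma. G-quadruplex stabilizers were combined with targeted agents over half-log dilutions from near the clinical Cmax, or from 10 microM.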

[1] = second compound 0.0316 µM, first compound 0.0316 µM
[2] = second compound 0.0316 µM, first compound 0.316 µM
[3] = second compound 0.1 µM, first compound 0.0316 µM
[4] = second compound 0.1 µM, first compound 0.316 µM
[5] = second compound 0.316 µM, first compound 0.0316 µM
[6] = second compound 0.316 µM, first compound 0.316 µM
[7] = second compound 1 µM, first compound 0.0316 µM
[8] = second compound 1 µM, first compound 0.316 µM
[9] = second compound 3.16 µM, first compound 0.0316 µM
[10] = second compound 3.16 µM, first compound 0.316 µM
[11] = second compound 10 µM, first compound 0.0316 µM
[12] = second compound 10 µM, first compound 0.316 µM
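Further: spheroids exposed to the agents for 7 days.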
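Wherever viability, T/C is given: 100% = DMSO vehicle control viability.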

COc1ncnc(C2CC2)c1-c1ncc2cnn(Cc3ccc(-c4nc(C(F)(F)F)cn4C(C)C)cc3)c2n1 + CN(C)c1ccc(Nc2c3ccc(NC(=O)CCN4CCCC4)cc3nc3cc(NC(=O)CCN4CCCC4)ccc23)cc1 was tested, and the pIC50 (second compound 0.0316 µM) was < 5.00, the pIC50 (second compound 0.1 µM) was < 5.00 and the pIC50 (second compound 0.316 µM) was < 5.00. The pIC50 (second compound 1 µM) was < 5.00, the pIC50 (second compound 3.16 µM) was < 5.00 and the pIC50 (second compound 10 µM) was < 5.00. The viability, T/C [1] was 99%, the viability, T/C (second compound 0.0316 µM, first compound 0.1 µM) was 88.7% and the viability, T/C [2] was 79.4%. It also gave a viability, T/C (second compound 0.0316 µM, first compound 1 µM) of 77.8%, a viability, T/C (second compound 0.0316 µM, first compound 3.16 µM) of 77.8% and a viability, T/C (second compound 0.0316 µM, first compound 10 µM) of 97.8%. It also gave a viability, T/C [3] of 91.4%, a viability, T/C (second compound 0.1 µM, first compound 0.1 µM) of 80.4% and a viability, T/C [4] of 82.2%. The viability, T/C (second compound 0.1 µM, first compound 1 µM) was 62.4%, the viability, T/C (second compound 0.1 µM, first compound 3.16 µM) was 81.4% and the viability, T/C (second compound 0.1 µM, first compound 10 µM) was 76.7%. It also gave a viability, T/C [5] of 73%, a viability, T/C (second compound 0.316 µM, first compound 0.1 µM) of 85.5% and a viability, T/C [6] of 86.5%. The viability, T/C (second compound 0.316 µM, first compound 1 µM) was 81.1%, the viability, T/C (second compound 0.316 µM, first compound 3.16 µM) was 87.5% and the viability, T/C (second compound 0.316 µM, first compound 10 µM) was 82.1%. The viability, T/C [7] was 69.2%, the viability, T/C (second compound 1 µM, first compound 0.1 µM) was 88.2% and the viability, T/C [8] was 81.5%. The viability, T/C (second compound 1 µM, first compound 1 µM) was 79%, the viability, T/C (second compound 1 µM, first compound 3.16 µM) was 85.7% and the viability, T/C (second compound 1 µM, first compound 10 µM) was 82.1%. It also gave a viability, T/C [9] of 74.5%, a viability, T/C (second compound 3.16 µM, first compound 0.1 µM) of 87.6% and a viability, T/C [10] of 86.6%. It also gave a viability, T/C (second compound 3.16 µM, first compound 1 µM) of 84.3%, a viability, T/C (second compound 3.16 µM, first compound 3.16 µM) of 86.4% and a viability, T/C (second compound 3.16 µM, first compound 10 µM) of 91.8%. It also gave a viability, T/C [11] of 75.5%, a viability, T/C (second compound 10 µM, first compound 0.1 µM) of 81.7% and a viability, T/C [12] of 86.8%. The viability, T/C (second compound 10 µM, first compound 1 µM) was 77.2%, the viability, T/C (second compound 10 µM, first compound 3.16 µM) was 89% and the viability, T/C (second compound 10 µM, first compound 10 µM) was 84.7%.

Cc1[nH]c2ccccc2c1CCNCc1ccc(/C=C/C(=O)NO)cc1 + CN(C)c1ccc(Nc2c3ccc(NC(=O)CCN4CCCC4)cc3nc3cc(NC(=O)CCN4CCCC4)ccc23)cc1 gave a pIC50 (second compound 0.0316 µM) of 6.52, a pIC50 (second compound 0.1 µM) of 6.60 and a pIC50 (second compound 0.316 µM) of 6.60. The pIC50 (second compound 1 µM) was 6.70, the pIC50 (second compound 3.16 µM) was < 6.50 and the pIC50 (second compound 10 µM) was 6.63. For the same molecule, the viability, T/C (second compound 0.0316 µM, first compound 0.000999 µM) was 103%, the viability, T/C (second compound 0.0316 µM, first compound 0.00316 µM) was 74.8% and the viability, T/C (second compound 0.0316 µM, first compound 0.00999 µM) was 85%. The viability, T/C [1] was 102%, the viability, T/C (second compound 0.0316 µM, first compound 0.0999 µM) was 77.2% and the viability, T/C [2] was 48.8%. It also gave a viability, T/C (second compound 0.1 µM, first compound 0.000999 µM) of 97.8%, a viability, T/C (second compound 0.1 µM, first compound 0.00316 µM) of 86% and a viability, T/C (second compound 0.1 µM, first compound 0.00999 µM) of 79.2%. For the same molecule, the viability, T/C [3] was 94%, the viability, T/C (second compound 0.1 µM, first compound 0.0999 µM) was 78.8% and the viability, T/C [4] was 42.4%. The viability, T/C (second compound 0.316 µM, first compound 0.000999 µM) was 91.5%, the viability, T/C (second compound 0.316 µM, first compound 0.00316 µM) was 81.8% and the viability, T/C (second compound 0.316 µM, first compound 0.00999 µM) was 88%. It also gave a viability, T/C [5] of 80.9%, a viability, T/C (second compound 0.316 µM, first compound 0.0999 µM) of 93.3% and a viability, T/C [6] of 41%. For the same molecule, the viability, T/C (second compound 1 µM, first compound 0.000999 µM) was 88.5%, the viability, T/C (second compound 1 µM, first compound 0.00316 µM) was 77.1% and the viability, T/C (second compound 1 µM, first compound 0.00999 µM) was 87.5%. The viability, T/C [7] was 80.8%, the viability, T/C (second compound 1 µM, first compound 0.0999 µM) was 96.1% and the viability, T/C [8] was 26%. The viability, T/C (second compound 3.16 µM, first compound 0.000999 µM) was 89.5%, the viability, T/C (second compound 3.16 µM, first compound 0.00316 µM) was 74.9% and the viability, T/C (second compound 3.16 µM, first compound 0.00999 µM) was 87.6%. It also gave a viability, T/C [9] of 68%, a viability, T/C (second compound 3.16 µM, first compound 0.0999 µM) of 91.6% and a viability, T/C [10] of 55%. It also gave a viability, T/C (second compound 10 µM, first compound 0.000999 µM) of 82.3%, a viability, T/C (second compound 10 µM, first compound 0.00316 µM) of 56.7% and a viability, T/C (second compound 10 µM, first compound 0.00999 µM) of 96.1%. The viability, T/C [11] was 81.1%, the viability, T/C (second compound 10 µM, first compound 0.0999 µM) was 98.8% and the viability, T/C [12] was 39%.
